Measured values: patent US8367840B2, “Composition for treating infectious diseases caused by Helicobacter” (Universidad de Zaragoza, priority 2007, dated 2013)

Legend:
H. pylori flavodoxin = target: T1, H. pylori flavodoxin (Helicobacter pylori, UniProt O25776); experiment: Inhibition of the pyruvate/PFOR/flavodoxin/FqrB/NADP+ electron transfer reaction (NADPH formation at 340 nm); assay type: biochemical; conditions: 50 μM compound; anaerobic; 10 μM Fld, 0.09 mg/ml PFOR, 0.15 μM FqrB; FIG. 1
T1 construct: made in house; host or cells: E. coli BL21 (flavodoxin, pET28a); E. coli JVQ2 (PFOR, pBS(KS)); E. coli BL21(DE3) (FqrB, pET29b)
T1 sequence (O25776 1-164): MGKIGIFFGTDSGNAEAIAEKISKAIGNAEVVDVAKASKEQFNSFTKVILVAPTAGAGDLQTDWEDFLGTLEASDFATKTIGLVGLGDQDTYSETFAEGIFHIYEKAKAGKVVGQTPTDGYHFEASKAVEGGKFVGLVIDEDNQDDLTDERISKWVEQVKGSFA
Description: Measurement of the absorbance (A) (AU is the unit of absorbance) at 340 nm against time (t) in seconds (s).
Flavodoxin is an essential protein for Helicobacter pylori survival as it participates in a fundamental reaction for obtaining energy from the oxidative decarboxylation of pyruvate. In this reaction, flavodoxin transfers electrons between the PFOR enzyme and the FqrB enzyme, which releases them to NADP^+.
The sequential reaction of electron transfer between pyruvate, PFOR, flavodoxin, FqrB and NADP^+ (activity assay) was followed spectroscopically by the appearance of the signal at 340 nm with the formation of NADPH. The reaction mixture contained 100 mM potassium phosphate pH 7, 10 mM pyruvate, 0.18 mM CoA, 1 mM MgCl, 0.3 mM NADP^+, 0.09 mg/ml PFOR, 10 μM Fld and 0.15 μM FqrB. The mixture, except CoA, was placed in a cuvette specially designed for anaerobic conditions. Oxygen was removed by means of 5 minute cycles with alternate flows of vacuum and argon. The reaction was started by the addition of 0.18 mM coenzyme A (CoA) that was held in a compartment inside the same cuvette. The reaction completed 15 minutes after adding the CoA reagent.
The inhibition assays were carried out in the same conditions as the activity assays previously described, adding an additional 50 μM of the disclosed compound of the general formula shown in (II) to the reaction cuvette.

flavodoxin of H. pylori = target: T2, flavodoxin of H. pylori (Helicobacter pylori, UniProt O25776); experiment: Binding to flavodoxin by isothermal titration calorimetry (ITC); conditions: 50 mM EPPS buffer, pH 9, 7% DMSO, protein around 20 μM, read-out: affinity for flavodoxin
T2 construct: made in house; host or cells: E. coli BL21
Description: The specific binding of the inhibitors of the present invention to flavodoxin of H. pylori was confirmed by isothermal titration calorimetry (ITC). This technique not only measures the affinity of each compound for the target protein, but also determines the contribution of the enthalpic and entropic components of binding.
The binding experiments were carried out in 50 mM EPPS buffer, pH 9 with 7% DMSO, with the inhibitor in the injection syringe at a concentration of 300-500 μM, and the protein around 20 μM in the measurement cell.

Q: `COc1ccc(CSc2ccc([N+](=O)[O-])c3nonc23)cc1` [formula (II)] was tested. Which “inhibition of NADPH formation (product formation curve, absorbance at 340 nm)” value (H. pylori flavodoxin) did it give?
A: almost total

Q: What about the Kd (flavodoxin of H. pylori) of the same molecule?
A: 3 µM
